Experimental data from patent publication US9566349B2, “Intestinal peptide targeting ligands” (Rutgers, The State University of New Jersey, priority 2010, dated 2017).
Square brackets hold non-standard residues; d marks the D form. Ends that are not written are not given here. Peptide text beside a SMILES is read from it. Nle = CCCC[C@H](N)C(=O)O

How the values were obtained:
[1] = cited from earlier work
[2] = Solubility and aggregation of peptide compared with SEQ ID NO. 1; assay type: physicochemical; settings: Met and Cys replaced by norleucine and serine
Source text: Another example of such an amino acid sequence is TKWPVDN/eSPNVS (SEQ ID. NO. 6). In comparison with SEQ ID. NO. 1, replacement of the oxidation-prone amino acids (methionine and cysteine) with their biosteric counterparts (norleucine and serine respectively) in SEQ ID. NO. […] The peptide ligands of the instant invention also include variants or homologues of SEQ ID NO: 6, which may be at least 75% identical to SEQ ID NO: 6 or which may contain conservative substitutions of corresponding amino acid residues.

[3] = test system: Caco-2 intestinal epithelial monolayer; experiment: Transport of FITC-labeled peptide across Caco-2 intestinal epithelial monolayer; assay type: cell-based, human; settings: Caco-2 monolayers, n=3, p<0.05
Source text: FIG. 2. Illustrates that peptide-labeled #12 (SEQ ID NO. 2) and its sequence-scrambled peptide FITC-12C1 were transported across Caco-2 intestinal epithelial monolayer in the presence and absence of chylomicron lipid-forming micelles.
Fluorescently labeled peptides according to SEQ ID NOS. 1 and 3 were synthesized. The peptide according to SEQ ID NO. […] The peptide according to SEQ ID NO. […] Therefore, the peptide according to SEQ ID NO. 2 aggregate may be viewed as a small nanoparticle displaying some peptides according to SEQ ID NO. 2 in correct orientation (i.e., on the surface not buried inside the nanoparticle). Even with this imperfect display, some increase in chylomicron lipid-dependent translocation across Caco-2 monolayers is still noticeable over a scrambled peptide according to SEQ ID NO. 1 (12C1) (FIG. 2). FITC-12 was 4.6-fold more efficiently transported than the sequence-scrambled control (FIG. 2).

Row | Compound | LogP [1] | other results
1 | Cc1cc(C2CCCCC2)n(O)c(=O)c1 [Ciclopirox] | 2.2 | 
2 | CC(C)CN(C[C@@H](O)[C@H](Cc1ccccc1)NC(=O)O[C@H]1CO[C@H]2OCC[C@H]21)S(=O)(=O)c1ccc(N)cc1 [Darunavir] | 1.8 | 
3 | C[C@@H]1CCO[C@H]2Cn3cc(C(=O)NCc4ccc(F)cc4F)c(=O)c(O)c3C(=O)N12 [Dolutegravir] | 1.0 | 
4 | CCCC[C@H](NC(=O)[C@H](CC(=O)O)NC(=O)[C@@H](NC(=O)[C@@H]1CCCN1C(=O)[C@H](Cc1c[nH]c2ccccc12)NC(=O)[C@H](CCCCN)NC(=O)[C@@H](N)[C@@H](C)O)C(C)C)C(=O)N[C@@H](CO)C(=O)N1CCC[C@H]1C(=O)N[C@@H](CC(N)=O)C(=O)N[C@H](C(=O)N[C@@H](CO)C(=O)O)C(C)C [SEQ ID. NO. 6, TKWPVDN/eSPNVS] (H-TKWPVD[Nle]SPNVS-OH; N-terminus and C-terminus assumed) |  | solubility in comparison with SEQ ID. NO. 1 [2]: better solubility
5 | FITC-12: fluorescently (FITC) labeled peptide #12 (SEQ ID NO. 2) (QDDVQTWQRQPK; also: FITC label, position not given here) |  | transport efficiency relative to sequence-scrambled control (12C1) [3]: 4.6 fold
